Measurements taken from US11186603B2, “Heparan sulfate glycomimetic compounds and their pharmaceutical and cosmeceutical uses” (VICTORIA LINK LIMITED, priority 2017, dated 2021).
Where “and” joins values, the source holds several entries; their conditions need not be identical. Identical values can stand only once. Like-named read-outs stand apart in the source and are kept apart here.

Columns and labels:
[1] = system: human dermal fibroblast cell line, CRL2071; assay: Production of collagen type I (ELISA); assay type: cell-based
Experimental: Cells from the human dermal fibroblast cell line, CRL2071 (passages 12-14), obtained from normal breast skin of a person, were allowed to attach for 6-8 hours before the addition of the test compounds. After 72 h of exposure to the test articles the media was removed, cells counted and the cell-associated fraction extracted. The media and cell-associated fraction were analysed for the concentration of collagen type I using a Chondrex Human type I Collagen Detection Kit ELISA (Cat #6021).
After complete dissolution the solutions were sterile filtered through a […] syringe filter and kept at 4° C. until use. Prior to each experiment dilutions were freshly prepared by diluting to 100 nM, 1 μM or 10 μM in cell-specific media.
(§1) The test compounds, positive controls and no treatment media were added to the flasks (2.5 ml/flask) and cells were incubated for 72 h before removal of the supernatant. After removal of the supernatant, cell monolayers were trypsinsed with 2.5 ml of 0.025% trypsin/[…] in PBS to each flask. After cell detachment (7-10 min), 1 ml of the cell/trypsin mixture was added to a 20 ml counting vial containing 9 ml of normal saline. The cells were quantitated with a Coulter Counter Z2.
In some treatments cells were found floating. They were collected, counted and subjected to viability testing using 1% trypan blue staining. The remaining 1.5 ml of trypsin/cell mixture was sonicated with a Branson tip-probed sonicator for 1 min, setting 6 before centrifugation at 10,000 rpm for 10 min. The supernatant was removed and used in the collagen ELISA for the quantitation of cell-associated collagen.

testicular hyaluronidase = assay: Inhibition of hyaluronidase (turbidimetric); assay type: biochemical
Experimental: The heparanase inhibitors were incubated with testicular hyaluronidase in the presence of hyaluronan and after incubation the amount of hyaluronic acid remaining was quantitated. Hyaluronidase activity was measured according to the method of Tolksdorf [Tolksdorf, S. & McCready, M. H., The turbometric determination of hyaluronidase, The Journal of Laboratory and Clinical Medicine, 1949, 34(1):74-89]. Hyaluronic acid is measured by its ability to form turbidity with an acid albumin solution. […] One unit is based on the change in absorbency (turbidity) at 540 nm of an internal USP standard. All tubes were placed in a boiling water bath for 5 min and then cooled to room temperature. On cooling 9.0 ml of albumin reagent was added and tubes were allowed to stand for 10 min. Readings of absorbance at 540 nm in a Pharmacia Novatec Model II were taken. The A540nm was plotted versus the hyaluronic acid concentration (mg) to form a standard curve.

[2] = target: T1, cellular tyrosinase, human primary epidermal melanocyte cell line (PCS-200-013) (Homo sapiens, UniProt P14679)
T1 sequence (P14679 19-529): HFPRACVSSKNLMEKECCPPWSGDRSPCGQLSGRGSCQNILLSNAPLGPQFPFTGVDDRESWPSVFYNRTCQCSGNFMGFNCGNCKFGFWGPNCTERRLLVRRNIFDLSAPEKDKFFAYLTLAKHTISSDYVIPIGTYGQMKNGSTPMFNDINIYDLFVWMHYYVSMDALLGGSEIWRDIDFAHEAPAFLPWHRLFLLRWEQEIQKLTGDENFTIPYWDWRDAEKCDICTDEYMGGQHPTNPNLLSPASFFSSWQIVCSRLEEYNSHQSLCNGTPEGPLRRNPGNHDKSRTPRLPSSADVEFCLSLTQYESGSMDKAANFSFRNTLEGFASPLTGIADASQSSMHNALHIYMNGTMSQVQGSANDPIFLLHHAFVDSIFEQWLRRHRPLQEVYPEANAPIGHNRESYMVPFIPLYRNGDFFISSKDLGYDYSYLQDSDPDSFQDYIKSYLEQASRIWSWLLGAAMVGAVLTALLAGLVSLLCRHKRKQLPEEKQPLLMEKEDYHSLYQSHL

[3] = system: human dermal fibroblast cell line, CRL2071; assay: Production of hyaluronan (ELISA); assay type: cell-based; conditions: 72 h; for ng Hyaluronan/1 × 10^6 cells (Mean ± SD): liberated hyaluronan (>6400Da); for Hyaluronan as % of No Treatment Control (Mean ± SD): liberated
Experimental: Cells from the human dermal fibroblast cell line, CRL2071 (passages 12-14), obtained from normal breast skin of a person, were allowed to attach for 6-8 hours before the addition of the test compounds. After 72 h of exposure to the test articles the media was removed, cells counted and the cell-associated fraction extracted. The media and cell-associated fraction were analysed for the concentration of hyaluronan using a Hyaluronan Detection Kit ELISA.
as §1
In some treatments cells were found floating. They were collected, counted and subjected to viability testing using 1% trypan blue staining. The remaining 1.5 ml of trypsin/cell mixture was sonicated with a Branson tip-probed sonicator for 1 min, setting 6 before centrifugation at 10,000 rpm for 10 min. The supernatant was removed and used in the hyaluronan ELISA for the quantitation of cell-associated hyaluronan.

[4] = cell-associated, 10 μg/ml, 72 h
[5] = cell-associated, 20 ng/ml, 72 h

C=C[C@@](C)(/C=C/c1ccc(O)cc1)CCC=C(C)C [Bakuchiol, reference compound]
Collagen as % of No Treatment Control (Mean ± SD), Cell-associated ([1]; cell-associated, 5 μg/ml, 72 h): 1,085 ± 60%
μg collagen (Mean ± SD), Cell-Associated Collagen Type 1 ([1]; cell-associated, 5 μg/ml, 72 h): 0.28 ± 0.02 µg
Collagen as % of No Treatment Control (Mean ± SD), Cell-associated [1, 4]: 600 ± 348%
μg collagen (Mean ± SD), Cell-Associated Collagen Type 1 [1, 4]: 0.29 ± 0.01 µg
Collagen as % of No Treatment Control (Mean ± SD), Liberated ([1]; 5 μg/ml, 72 h): 43 ± 17%
μg collagen (Mean ± SD), Liberated Collagen Type 1 ([1]; 5 μg/ml, 72 h): 0.02 ± 0.01 µg
Collagen as % of No Treatment Control (Mean ± SD), Liberated ([1]; 10 μg/ml, 72 h): 357 ± 20%
μg collagen (Mean ± SD), Liberated Collagen Type 1 ([1]; 10 μg/ml, 72 h): 0.15 ± 0.01 µg

O=C(CCCCCCCNC(=O)CCOCC(COCCC(=O)NCCCCCCCC(=O)NCCCCCCOC1OC(COS(=O)(=O)[O-])C(OS(=O)(=O)[O-])C(OS(=O)(=O)[O-])C1OS(=O)(=O)[O-])(COCCC(=O)NCCCCCCCC(=O)NCCCCCCOC1OC(COS(=O)(=O)[O-])C(OS(=O)(=O)[O-])C(OS(=O)(=O)[O-])C1OS(=O)(=O)[O-])COCCC(=O)NCCCCCCCC(=O)NCCCCCCOC1OC(COS(=O)(=O)[O-])C(OS(=O)(=O)[O-])C(OS(=O)(=O)[O-])C1OS(=O)(=O)[O-])NCCCCCCOC1OC(COS(=O)(=O)[O-])C(OS(=O)(=O)[O-])C(OS(=O)(=O)[O-])C1OS(=O)(=O)[O-].[Na+].[Na+].[Na+].[Na+].[Na+].[Na+].[Na+].[Na+].[Na+].[Na+].[Na+].[Na+].[Na+].[Na+].[Na+].[Na+] (stereo not drawn) [Compound 17d]
Collagen as % of No Treatment Control (Mean ± SD), Cell-associated [1]: 3,076 ± 803% and 5,116 ± 231%
μg collagen (Mean ± SD), Cell-Associated Collagen Type 1 [1]: 1.32 ± 0.35 µg and 2.20 ± 0.10 µg
Hyaluronidase inhibition as a % of the "No Treatment" control (Mean ± SD) (testicular hyaluronidase; 100 nM): 0 ± 0%
Hyaluronidase inhibition as a % of the "No Treatment" control (Mean ± SD) (testicular hyaluronidase; 1 μM): 0 ± 0%
Hyaluronidase inhibition as a % of the "No Treatment" control (Mean ± SD) (testicular hyaluronidase; 10 μM): 23 ± 1%
inhibition of testicular hyaluronidase (in words) (testicular hyaluronidase; summary of Example 11): effective inhibitors of testicular hyaluronidase
inhibitory effect on tyrosinase activity (in words) [2]: significant inhibitory effect on tyrosinase activity
Tyrosinase inhibition as a % of the "No Treatment" control (Mean ± SD) ([2]; 0.1 µM): 0 ± 0%
Tyrosinase inhibition as a % of the "No Treatment" control (Mean ± SD) ([2]; 1 μM): 0 ± 0%
Tyrosinase inhibition as a % of the "No Treatment" control (Mean ± SD) ([2]; 10 μM): 44 ± 2%

CC1=C(/C=C/C(C)=C/C=C/C(C)=C/CO)C(C)(C)CCC1 [Retinol, reference compound]
ng Hyaluronan/1 × 10^6 cells (Mean ± SD) ([3]; 5 μg/ml): 576 ± 0 ng Hyaluronan/1 × 10^6 cells
Hyaluronan as % of No Treatment Control (Mean ± SD) ([3]; 5 μg/ml): 1,346 ± 0%

TGF-β1: Transforming growth Factor β1, Sigma Aldrich, positive control
Collagen as % of No Treatment Control (Mean ± SD), Cell-associated [1, 5]: 719 ± 57%
μg collagen (Mean ± SD), Cell-Associated Collagen Type 1 [1, 5]: 0.31 ± 0.02 µg
Collagen as % of No Treatment Control (Mean ± SD), Liberated ([1]; 20 ng/ml, 72 h): 2,852 ± 285%
μg collagen (Mean ± SD), Liberated Collagen Type 1 ([1]; 20 ng/ml, 72 h): 1.23 ± 0.12 µg
ng Hyaluronan/1 × 10^6 cells (Mean ± SD) ([3]; 20 ng/ml): 507 ± 68 ng Hyaluronan/1 × 10^6 cells
Hyaluronan as % of No Treatment Control (Mean ± SD) ([3]; 20 ng/ml): 1,186 ± 159%

B1: TGF-β2: Transforming growth Factor β2, Sigma Aldrich, positive control (protein, UniProt P61812 303-414, looked up)
Transforming growth factor …: ALDAAYCFRNVQDNCCLRPLYIDFKRDLGWKWIHEPKGYNANFCAGACPYLWSSDTQHSRVLSLYNTINPEASASPCCVSQDLEPLTILYYIGKTPKIEQLSNMIVKSCKCS
Collagen as % of No Treatment Control (Mean ± SD), Cell-associated [1, 5]: 77 ± 9%
μg collagen (Mean ± SD), Cell-Associated Collagen Type 1 [1, 5]: 0.03 ± 0.00 µg
Collagen as % of No Treatment Control (Mean ± SD), Liberated ([1]; 20 ng/ml, 72 h): 446 ± 73%
μg collagen (Mean ± SD), Liberated Collagen Type 1 ([1]; 20 ng/ml, 72 h): 0.19 ± 0.03 µg
